From article PMC5218480 (PLoS ONE, 2017)

System: MV-4-11 cells
Assay: Gene expression microarray analysis (Affymetrix PrimeView) and GSEA
Assay type: cell-based, human
Parameters: RFU PODN (11730768_x_at) / Fold change /veh PODN (11730768_x_at) / RFU LINC00158 (11744669_a_at) / Fold change /veh LINC00158 (11744669_a_at) / RFU DUSP10 (11751237_a_at) / Fold change /veh DUSP10 (11751237_a_at) / RFU ID3 (11757404_x_at) / Fold change /veh ID3 (11757404_x_at) / RFU PLEKHG5 (11737974_s_at) / Fold change /veh PLEKHG5 (11737974_s_at) / RFU LRRC4B (11730491_at) / Fold change /veh LRRC4B (11730491_at) / RFU GIMAP4 (11747438_a_at) / Fold change /veh GIMAP4 (11747438_a_at) / RFU KRT8 (11758183_x_at) / Fold change /veh KRT8 (11758183_x_at) / RFU CNN1 (11734310_a_at) / Fold change /veh CNN1 (11734310_a_at) / RFU VPS37D (11726825_at) / Fold change /veh VPS37D (11726825_at) / RFU C10orf10 (11716522_x_at) / Fold change /veh C10orf10 (11716522_x_at) / RFU KIR2DL2 /// KIR2DL4 /// KIR2DL5A /// KIR2DL5B /// KIR2DS1 /// KIR2DS2 /// KIR2DS3 /// KIR2DS4 /// KIR3DL3 /// KIR3DL3 /// KIR3DS1 (11738374_at) / Fold change /veh KIR2DL2 /// KIR2DL4 /// KIR2DL5A /// KIR2DL5B /// KIR2DS1 /// KIR2DS2 /// KIR2DS3 /// KIR2DS4 /// KIR3DL3 /// KIR3DL3 /// KIR3DS1 (11738374_at) / RFU C1QL1 (11718748_at) / Fold change /veh C1QL1 (11718748_at) / RFU TMPRSS4 (11747572_a_at) / Fold change /veh TMPRSS4 (11747572_a_at) / RFU HAMP (11756126_x_at) / Fold change /veh HAMP (11756126_x_at) / RFU RNFT2 (11725882_a_at) / Fold change /veh RNFT2 (11725882_a_at) / RFU NR4A2 (11747474_a_at) / Fold change /veh NR4A2 (11747474_a_at) / RFU ABCC12 (11746883_a_at) / Fold change /veh ABCC12 (11746883_a_at) / RFU TMEM136 (11760407_x_at) / Fold change /veh TMEM136 (11760407_x_at) / RFU CLDN22 /// WWC2 (11732394_at) / Fold change /veh CLDN22 /// WWC2 (11732394_at) / RFU HLA-DPB1 (11760878_x_at) / Fold change /veh HLA-DPB1 (11760878_x_at) / RFU SPINT1 (11716480_a_at) / Fold change /veh SPINT1 (11716480_a_at) / RFU GAP43 (11754022_s_at) / Fold change /veh GAP43 (11754022_s_at) / RFU A4GNT (11735810_at) / Fold change /veh A4GNT (11735810_at) / RFU PRB3 (11715151_x_at) / Fold change /veh PRB3 (11715151_x_at) / RFU TUBB4B (11761932_at) / Fold change /veh TUBB4B (11761932_at) / RFU CAPN14 (11732068_a_at) / Fold change /veh CAPN14 (11732068_a_at) / RFU TMCC2 (11721928_a_at) / Fold change /veh TMCC2 (11721928_a_at) / RFU IRGQ (11745062_a_at) / Fold change /veh IRGQ (11745062_a_at) / RFU FAM174B (11720279_a_at) / Fold change /veh FAM174B (11720279_a_at) / RFU TMPRSS4 (11748680_a_at) / Fold change /veh TMPRSS4 (11748680_a_at) / RFU FAM212B (11763350_a_at) / Fold change /veh FAM212B (11763350_a_at) / RFU PLEKHG5 (11743358_a_at) / Fold change /veh PLEKHG5 (11743358_a_at) / RFU ZSCAN30 (11745921_a_at) / Fold change /veh ZSCAN30 (11745921_a_at) / RFU CMKLR1 (11741424_a_at) / Fold change /veh CMKLR1 (11741424_a_at) / RFU LOC101060620 /// MAPK8IP1 (11723275_at) / Fold change /veh LOC101060620 /// MAPK8IP1 (11723275_at) / RFU SPTSSB (11747773_x_at) / Fold change /veh SPTSSB (11747773_x_at) / RFU PRSS12 (11739890_at) / Fold change /veh PRSS12 (11739890_at) / RFU BIN1 (11741810_x_at) / Fold change /veh BIN1 (11741810_x_at) / RFU WNT11 (11732464_a_at) / Fold change /veh WNT11 (11732464_a_at) / RFU C10orf10 (11716521_a_at) / Fold change /veh C10orf10 (11716521_a_at) / RFU C5orf56 (11738089_at) / Fold change /veh C5orf56 (11738089_at) / RFU CYB561 (11721691_x_at) / Fold change /veh CYB561 (11721691_x_at) / RFU ANKRD19P (11752326_a_at) / Fold change /veh ANKRD19P (11752326_a_at) / RFU OR2T12 /// OR2T33 /// OR2T8 (11738714_s_at) / Fold change /veh OR2T12 /// OR2T33 /// OR2T8 (11738714_s_at) / RFU VCAN (11748164_a_at) / Fold change /veh VCAN (11748164_a_at) / RFU JSRP1 (11732532_at) / Fold change /veh JSRP1 (11732532_at) / RFU KRTAP10-11 (11738290_x_at) / Fold change /veh KRTAP10-11 (11738290_x_at) / RFU MYO3A (11730013_a_at) / Fold change /veh MYO3A (11730013_a_at) / RFU EBF3 (11725865_a_at) / Fold change /veh EBF3 (11725865_a_at) / RFU CAMK2N1 (11719241_x_at) / Fold change /veh CAMK2N1 (11719241_x_at) / RFU C5orf56 (11738088_a_at) / Fold change /veh C5orf56 (11738088_a_at) / RFU OLFML3 (11715873_a_at) / Fold change /veh OLFML3 (11715873_a_at) / RFU LOC100653217 /// NTM (11731650_a_at) / Fold change /veh LOC100653217 /// NTM (11731650_a_at) / RFU MAPK11 (11762145_a_at) / Fold change /veh MAPK11 (11762145_a_at) / RFU FIZ1 (11724087_x_at) / Fold change /veh FIZ1 (11724087_x_at) / RFU OASL (11726364_x_at) / Fold change /veh OASL (11726364_x_at) / RFU SOX15 (11748057_x_at) / Fold change /veh SOX15 (11748057_x_at) / RFU CD79A (11719716_a_at) / Fold change /veh CD79A (11719716_a_at) / RFU HIST1H1D (11736915_at) / Fold change /veh HIST1H1D (11736915_at) / RFU CASKIN2 (11723855_a_at) / Fold change /veh CASKIN2 (11723855_a_at) / RFU LOC730098 (11760151_x_at) / Fold change /veh LOC730098 (11760151_x_at) / RFU OR4N2 (11742367_at) / Fold change /veh OR4N2 (11742367_at) / RFU PRRT2 (11749266_a_at) / Fold change /veh PRRT2 (11749266_a_at) / RFU SNX32 (11753110_a_at) / Fold change /veh SNX32 (11753110_a_at) / RFU CDHR5 (11726645_a_at) / Fold change /veh CDHR5 (11726645_a_at) / RFU RCAN1 (11760418_a_at) / Fold change /veh RCAN1 (11760418_a_at) / RFU FAM167A (11723789_a_at) / Fold change /veh FAM167A (11723789_a_at) / RFU FAM26E (11764081_at) / Fold change /veh FAM26E (11764081_at) / RFU ISYNA1 (11749810_s_at) / Fold change /veh ISYNA1 (11749810_s_at) / RFU ACY1 (11761880_at) / Fold change /veh ACY1 (11761880_at) / RFU 11764098_at / Fold change /veh 11764098_at / RFU SAMD14 (11745864_x_at) / Fold change /veh SAMD14 (11745864_x_at) / RFU NPB (11741838_a_at) / Fold change /veh NPB (11741838_a_at) / RFU TMPRSS6 (11731388_a_at) / Fold change /veh TMPRSS6 (11731388_a_at) / RFU KRTAP10-2 (11738614_at) / Fold change /veh KRTAP10-2 (11738614_at) / RFU ARHGAP8 /// PRR5-ARHGAP8 (11727945_x_at) / Fold change /veh ARHGAP8 /// PRR5-ARHGAP8 (11727945_x_at) / RFU KRTAP5-7 /// NADSYN1 (11734609_at) / Fold change /veh KRTAP5-7 /// NADSYN1 (11734609_at) / RFU RASL12 (11751679_a_at) / Fold change /veh RASL12 (11751679_a_at) / RFU CDKN2B (11736163_a_at) / Fold change /veh CDKN2B (11736163_a_at) / RFU PRF1 (11729649_at) / Fold change /veh PRF1 (11729649_at) / RFU, ZNF638 /// ZNF638-IT1 / Fold change vs veh, ZNF638 /// ZNF638-IT1 / RFU, PANK3 / Fold change vs veh, PANK3 / RFU, SH3YL1 / Fold change vs veh, SH3YL1 / RFU, ZEB2 / Fold change vs veh, ZEB2 / RFU, NRIP1 / Fold change vs veh, NRIP1 / RFU, PTTG1IP / Fold change vs veh, PTTG1IP / RFU, CAPN2 / Fold change vs veh, CAPN2 / RFU, MED14 / Fold change vs veh, MED14 / RFU, SNORA58 / Fold change vs veh, SNORA58 / RFU, C1orf63 / Fold change vs veh, C1orf63 / RFU, LRRFIP1 / Fold change vs veh, LRRFIP1 / RFU, NDUFAF7 / Fold change vs veh, NDUFAF7 / RFU, SLC12A2 / Fold change vs veh, SLC12A2 / RFU, IBTK / Fold change vs veh, IBTK / RFU, ESF1 / Fold change vs veh, ESF1 / Fold change vs veh, TMEM50B / RFU, TAOK1 / Fold change vs veh, TAOK1 / RFU, ACBD3 / Fold change vs veh, ACBD3 / RFU, TMA16 / Fold change vs veh, TMA16 / RFU, RWDD3 / Fold change vs veh, RWDD3 / RFU, BCAT1 / Fold change vs veh, BCAT1 / RFU, EDEM3 / Fold change vs veh, EDEM3 / RFU, TMEM33 / Fold change vs veh, TMEM33 / RFU, WDR75 / Fold change vs veh, WDR75 / RFU, AHCTF1 / Fold change vs veh, AHCTF1 / RFU, TFRC / Fold change vs veh, TFRC / RFU, ZDHHC17 / Fold change vs veh, ZDHHC17 / RFU, NOM1 / Fold change vs veh, NOM1 / RFU, ARL8B / Fold change vs veh, ARL8B / RFU, ZBTB11 / Fold change vs veh, ZBTB11 / RFU, TAMM41 / Fold change vs veh, TAMM41 / RFU, KIAA1704 /// LOC100996395 / Fold change vs veh, KIAA1704 /// LOC100996395 / RFU, ING1 / Fold change vs veh, ING1 / RFU, TRMT61B / Fold change vs veh, TRMT61B / RFU, FUBP3 / Fold change vs veh, FUBP3 / RFU, TP53 / Fold change vs veh, TP53 / RFU, TNKS2 / Fold change vs veh, TNKS2 / RFU, ZFP14 / Fold change vs veh, ZFP14 / RFU, ACTR2 / Fold change vs veh, ACTR2 / RFU, PPP3R1 / Fold change vs veh, PPP3R1 / RFU, PIK3R1 / Fold change vs veh, PIK3R1 / RFU, HNRNPA1 / Fold change vs veh, HNRNPA1 / RFU, RNF170 / Fold change vs veh, RNF170 / RFU, ZNF28 / Fold change vs veh, ZNF28 / RFU, RNGTT / Fold change vs veh, RNGTT / RFU, OGT / Fold change vs veh, OGT / RFU, BRD1 / Fold change vs veh, BRD1 / RFU, MARS / Fold change vs veh, MARS / RFU, ZNF655 / Fold change vs veh, ZNF655 / RFU, FAHD1 / Fold change vs veh, FAHD1 / RFU, BDP1 / Fold change vs veh, BDP1 / RFU, LRRCC1 / Fold change vs veh, LRRCC1 / RFU, ARID1A / Fold change vs veh, ARID1A / RFU, ZNF146 / Fold change vs veh, ZNF146 / RFU, ZNF330 / Fold change vs veh, ZNF330 / RFU, GPN3 / Fold change vs veh, GPN3 / RFU, C9orf123 / Fold change vs veh, C9orf123 / RFU, N4BP2L2 / Fold change vs veh, N4BP2L2 / RFU, ARFIP1 / Fold change vs veh, ARFIP1 / RFU, FAM179B / Fold change vs veh, FAM179B / RFU, BCL10 / Fold change vs veh, BCL10 / RFU, UHRF1BP1L / Fold change vs veh, UHRF1BP1L / RFU, BET1 / Fold change vs veh, BET1 / RFU, CNOT2 / Fold change vs veh, CNOT2 / RFU, ZNF268 / Fold change vs veh, ZNF268 / Fold change vs veh, ZNF507 / RFU, DGCR2 / Fold change vs veh, DGCR2 / RFU, WDSUB1 / Fold change vs veh, WDSUB1 / Fold change vs veh, HSP90B1 /// MIR3652 / RFU, ADSS / Fold change vs veh, ADSS / RFU, GK / Fold change vs veh, GK / RFU, ZNF148 / Fold change vs veh, ZNF148 / RFU, TAF9 / Fold change vs veh, TAF9 / RFU, SLC1A5 / Fold change vs veh, SLC1A5 / RFU, SLMO2 / Fold change vs veh, SLMO2 / RFU, ABCC4 / Fold change vs veh, ABCC4 / RFU, LOC101060439 /// RAP1B / Fold change vs veh, LOC101060439 /// RAP1B / RFU, RFX7 / Fold change vs veh, RFX7 / RFU, GTPBP10 / Fold change vs veh, GTPBP10 / RFU, CNEP1R1 / Fold change vs veh, CNEP1R1 / RFU, BIVM-ERCC5 /// ERCC5 / Fold change vs veh, BIVM-ERCC5 /// ERCC5 / RFU, ILF3 / Fold change vs veh, ILF3 / RFU 11762660_at / Fold change /veh 11762660_at / RFU VCAN (11757783_s_at) / Fold change /veh VCAN (11757783_s_at) / RFU DDX43 (11728927_at) / Fold change /veh DDX43 (11728927_at) / RFU KRT8 (11758188_x_at) / Fold change /veh KRT8 (11758188_x_at) / RFU NKD1 (11759106_at) / Fold change /veh NKD1 (11759106_at) / RFU SRD5A1 (11742802_a_at) / Fold change /veh SRD5A1 (11742802_a_at) / RFU TPSAB1 /// TPSB2 (11721975_s_at) / Fold change /veh TPSAB1 /// TPSB2 (11721975_s_at) / RFU GSTM3 (11746129_a_at) / Fold change /veh GSTM3 (11746129_a_at) / RFU IL23R (11737362_x_at) / Fold change /veh IL23R (11737362_x_at) / RFU TMEM51 (11727254_a_at) / Fold change /veh TMEM51 (11727254_a_at) / RFU PIWIL2 (11732686_x_at) / Fold change /veh PIWIL2 (11732686_x_at) / RFU ORM1 (11744905_x_at) / Fold change /veh ORM1 (11744905_x_at) / RFU CCDC152 (11743942_at) / Fold change /veh CCDC152 (11743942_at) / RFU ECM1 (11717891_a_at) / Fold change /veh ECM1 (11717891_a_at) / RFU IL23R (11748794_a_at) / Fold change /veh IL23R (11748794_a_at) / RFU TNFAIP8L3 (11732012_x_at) / Fold change /veh TNFAIP8L3 (11732012_x_at) / RFU MBOAT4 (11741988_at) / Fold change /veh MBOAT4 (11741988_at) / RFU 11764193_at / Fold change /veh 11764193_at / RFU TMEM53 (11763286_at) / Fold change /veh TMEM53 (11763286_at) / RFU MAGEB2 (11727129_at) / Fold change /veh MAGEB2 (11727129_at) / RFU TMEM200A (11744735_a_at) / Fold change /veh TMEM200A (11744735_a_at) / RFU CCDC152 (11751479_a_at) / Fold change /veh CCDC152 (11751479_a_at) / RFU FAM211A (11726209_a_at) / Fold change /veh FAM211A (11726209_a_at) / RFU RGS16 (11746705_a_at) / Fold change /veh RGS16 (11746705_a_at) / RFU VCAN (11755009_s_at) / Fold change /veh VCAN (11755009_s_at) / RFU RHOB (11743442_s_at) / Fold change /veh RHOB (11743442_s_at) / RFU RGS16 (11720943_a_at) / Fold change /veh RGS16 (11720943_a_at) / RFU RGS16 (11720944_at) / Fold change /veh RGS16 (11720944_at) / RFU, VPS4B / Fold change vs veh, VPS4B / RFU, CREB1 / Fold change vs veh, CREB1 / RFU, DNAJC13 / Fold change vs veh, DNAJC13 / RFU, GNAQ / Fold change vs veh, GNAQ / RFU, CDK5R1 / Fold change vs veh, CDK5R1 / RFU, ZRANB3 / Fold change vs veh, ZRANB3 / RFU, CUL4A / Fold change vs veh, CUL4A / RFU, CCNY / Fold change vs veh, CCNY / RFU, UFL1 / Fold change vs veh, UFL1 / RFU, COG3 / Fold change vs veh, COG3 / RFU, DIAPH2 / Fold change vs veh, DIAPH2 / RFU, SKA2 / Fold change vs veh, SKA2 / RFU, AFF3 / Fold change vs veh, AFF3 / RFU, LMF1 / Fold change vs veh, LMF1 / RFU, IPO11 / Fold change vs veh, IPO11 / RFU, DFFB / Fold change vs veh, DFFB / RFU, FOXP1 / Fold change vs veh, FOXP1 / RFU, CARD8 / Fold change vs veh, CARD8 / RFU, STRN3 / Fold change vs veh, STRN3 / RFU, ADK / Fold change vs veh, ADK / RFU, RASSF2 / Fold change vs veh, RASSF2 / RFU, WIPF1 / Fold change vs veh, WIPF1 / RFU, LARP1B / Fold change vs veh, LARP1B / RFU, RASA1 / Fold change vs veh, RASA1 / RFU, RB1 / Fold change vs veh, RB1 / RFU, PPFIA1 / Fold change vs veh, PPFIA1 / RFU, MAT2A / Fold change vs veh, MAT2A / RFU, CCT5 / Fold change vs veh, CCT5 / RFU, WDR92 / Fold change vs veh, WDR92 / RFU, CUX1 / Fold change vs veh, CUX1 / RFU, TTC7A / Fold change vs veh, TTC7A / RFU, TMEM135 / Fold change vs veh, TMEM135 / RFU, DEPTOR / Fold change vs veh, DEPTOR / RFU, CPM / Fold change vs veh, CPM / RFU, DNAJB6 / Fold change vs veh, DNAJB6 / RFU, CACNA2D3 / Fold change vs veh, CACNA2D3 / RFU, DTX4 / Fold change vs veh, DTX4 / RFU, TFCP2 / Fold change vs veh, TFCP2 / RFU, GMCL1 /// GMCL1P1 / Fold change vs veh, GMCL1 /// GMCL1P1 / RFU, AEBP2 / Fold change vs veh, AEBP2 / RFU, SNHG1 /// SNORD22 /// SNORD25 /// SNORD26 /// SNORD27 /// SNORD28 /// SNORD29 /// SNORD31 / Fold change vs veh, SNHG1 /// SNORD22 /// SNORD25 /// SNORD26 /// SNORD27 /// SNORD28 /// SNORD29 /// SNORD31 / Fold change (Aza/veh), C12orf56 (ProbeSet 11735607_a_at) / Fold change (ACY-1035/veh), C12orf56 (ProbeSet 11735607_a_at) / Fold change (Aza/veh), FGFR1OP (ProbeSet 11751329_s_at) / Fold change (ACY-1035/veh), FGFR1OP (ProbeSet 11751329_s_at) / Fold change (Aza/veh), VPS36 (ProbeSet 11739960_a_at) / Fold change (ACY-1035/veh), VPS36 (ProbeSet 11739960_a_at) / RFU SYPL1 (11715823_x_at) / Fold change /veh SYPL1 (11715823_x_at) / RFU IGFBP7 (11715501_s_at) / Fold change /veh IGFBP7 (11715501_s_at) / RFU REEP3 (11722064_at) / Fold change /veh REEP3 (11722064_at) / RFU IGLL1 (11728026_x_at) / Fold change /veh IGLL1 (11728026_x_at): dose or concentration left out as unconfirmed
Details: MV-4-11 cells, 48 hours

For `Nc1ncn([C@@H]2O[C@H](CO)[C@@H](O)[C@H]2O)c(=O)n1` [azacitidine], the “RFU ACY1 (11761880_at)” value was 18.62 RFU.
